From patent publication US10472364B2 (Calithera Biosciences, Inc., priority 2016, dated 2019) come the findings set out here.

Each structure is given as a SMILES string.

endogenous, cell-bound CD73 on SK-MEL-28 cells, sequence (P21589 27-574): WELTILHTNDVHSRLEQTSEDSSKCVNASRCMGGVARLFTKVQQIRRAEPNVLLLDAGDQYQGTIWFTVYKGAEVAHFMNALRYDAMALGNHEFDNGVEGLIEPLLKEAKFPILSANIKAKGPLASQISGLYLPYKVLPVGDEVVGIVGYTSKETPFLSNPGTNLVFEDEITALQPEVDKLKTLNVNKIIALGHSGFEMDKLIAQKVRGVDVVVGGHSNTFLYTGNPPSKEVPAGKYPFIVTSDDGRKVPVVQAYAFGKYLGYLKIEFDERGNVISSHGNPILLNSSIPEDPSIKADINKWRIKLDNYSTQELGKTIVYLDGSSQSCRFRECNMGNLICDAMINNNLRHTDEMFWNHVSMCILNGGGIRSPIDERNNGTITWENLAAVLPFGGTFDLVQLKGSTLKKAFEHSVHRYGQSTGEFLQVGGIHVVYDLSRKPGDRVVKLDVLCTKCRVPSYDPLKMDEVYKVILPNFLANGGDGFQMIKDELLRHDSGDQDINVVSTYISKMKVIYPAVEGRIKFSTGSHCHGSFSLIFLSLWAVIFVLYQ

The assay has as its target endogenous, cell-bound CD73 on SK-MEL-28 cells (Homo sapiens (Human), UniProt P21589). Description: Inhibition of endogenous, cell-bound CD73 enzyme activity in SK-MEL-28 cells (Malachite Green). The following applies: 100 μM AMP, 30 minutes at room temperature. In kind it is cell-based. On the procedure: The day before the experiment, 5000 cells were plated per well in a 96-well plate. Cells were washed twice with […] reaction buffer (20 mM HEPES, pH 7.4, 125 mM NaCl, 1 mM KCl, 2 mM MgCl2, 10 mM glucose) to remove residual inorganic phosphate. After washing, assays contained serial dilutions of test compounds and 100 μM of AMP in a total volume of 200 μL reaction buffer, with a final DMSO concentration≤0.5%. After 30 minutes at room temperature, supernatant was removed from the cells. […] The concentration of inorganic phosphate was determined using a phosphate standard curve to determine IC50.
In the case of `Nc1nc(Cl)nc2c1ncn2[C@@H]1O[C@H](COC(Cc2ccc3oc(C(=O)O)cc3c2)(C(=O)O)C(=O)O)[C@@H](O)[C@@H]1F` [compound 88, 2-(((2R,3R,4S,5R)-5-(6-amino-2-chloro-9H-purin-9-yl)-4-fluoro-3-hydroxytetrahydro-furan-2-yl)methoxy)-2-((2-carboxybenzofuran-5-yl)methyl)malonic acid], the IC50 (commonly the concentration at which inhibition is half-maximal) worked out at 443 nM. This lies in the sub-micromolar range.

As for `Nc1nc(Cl)nc2c1ncn2[C@@H]1O[C@H](COC(Cc2ccc(C(=O)NCCC(=O)O)cc2)(C(=O)O)C(=O)O)[C@@H](O)[C@@H]1F` [compound 87, 2-(((2R,3R,4S,5R)-5-(6-amino-2-chloro-9H-purin-9-yl)-4-fluoro-3-hydroxytetrahydro-furan-2-yl)methoxy)-2-(4-((2-carboxy-ethyl)carbamoyl)benzyl)malonic acid], the IC50 stood at 549 nM.

In the case of `Nc1nc(Cl)nc2c1ncn2[C@@H]1O[C@H](COC(Cc2cc(-c3ccccc3)no2)(C(=O)O)C(=O)O)[C@@H](O)[C@@H]1F` [compound 61, 2-(((2R,3R,4S,5R)-5-(6-amino-2-chloro-9H-purin-9-yl)-4-fluoro-3-hydroxytetrahydrofuran-2-yl)methoxy)-2-((3-phenylisoxazol-5-yl)methyl)malonic acid], 6970 nM corresponded to half-maximal inhibition (IC50).

Regarding `Nc1nc(Cl)nc2c1ncn2[C@@H]1O[C@H](COC(Cc2cc(C(=O)O)no2)(C(=O)O)C(=O)O)[C@@H](O)[C@@H]1F` [compound 83, 2-(((2R,3R,4S,5R)-5-(6-amino-2-chloro-9H-purin-9-yl)-4-fluoro-3-hydroxytetrahydrofuran-2-yl)methoxy)-2-((3-carboxyisoxazol-5-yl)methyl)malonic acid], half-maximal inhibition (IC50) was put at 5200 nM. This IC50 and that of the molecule before are within 1.5-fold of each other.

In turn, `Nc1nc(Cl)nc2c1ncn2[C@@H]1O[C@H](COC(Cc2ccc(Cl)cc2F)(C(=O)O)C(=O)O)[C@@H](O)[C@@H]1F` [compound 80, 2-(((2R,3R,4S,5R)-5-(6-amino-2-chloro-9H-purin-9-yl)-4-fluoro-3-hydroxytetrahydrofuran-2-yl)methoxy)-2-(4-chloro-2-fluorobenzyl)malonic acid] yielded an IC50 of 177 nM.

As for `CC(C)(C)OC(=O)Nc1nc(N=[N+]=[N-])nc2c1ncn2[C@@H]1O[C@H](COC(Cc2cccc(C#N)c2)(C(=O)O)C(=O)O)[C@@H](O)[C@@H]1F` [compound 41], the IC50 was determined as 4880 nM. This IC50 is about 28-fold higher than that of the molecule before.

The molecule `Nc1nc(Cl)nc2c1ncn2[C@@H]1O[C@H](COC(Cc2cccc(Oc3ccccc3)c2)(C(=O)O)C(=O)O)[C@@H](O)[C@@H]1F` [compound 13, 2-(((2R,3R,4S,5R)-5-(6-amino-2-chloro-9H-purin-9-yl)-4-fluoro-3-hydroxytetrahydrofuran-2-yl)methoxy)-2-(3-phenoxybenzyl)malonic acid] had an IC50 of 2190 nM.

In the case of `Nc1nc(Cl)nc2c1ncn2[C@@H]1O[C@H](COC(Cc2ccc(C(F)(F)F)cc2)(C(=O)O)C(=O)O)[C@@H](O)[C@@H]1F` [compound 20, 2-(((2R,3R,4S,5R)-5-(6-amino-2-chloro-9H-purin-9-yl)-4-fluoro-3-hydroxytetrahydrofuran-2-yl)methoxy)-2-(4-(trifluoromethyl)benzyl)malonic acid], half-maximal inhibition (IC50) was put at 611 nM.

As for `Nc1nc(Cl)nc2c1ncn2[C@@H]1O[C@H](COC(Cc2cccc(C(F)(F)F)c2)(C(=O)O)C(=O)O)[C@@H](O)[C@@H]1F` [compound 16, 2-(((2R,3R,4S,5R)-5-(6-amino-2-chloro-9H-purin-9-yl)-4-fluoro-3-hydroxytetrahydrofuran-2-yl)methoxy)-2-(3-(trifluoromethyl)benzyl)malonic acid], half-maximal inhibition (IC50) required 1020 nM.

Take `Nc1nc(Cl)nc2c1ncn2[C@@H]1O[C@H](COC(Cc2cccc(O)c2)(C(=O)O)C(=O)O)[C@@H](O)[C@@H]1F` [compound 56, 2-(((2R,3R,4S,5R)-5-(6-amino-2-chloro-9H-purin-9-yl)-4-fluoro-3-hydroxytetrahydrofuran-2-yl)methoxy)-2-(3-hydroxybenzyl)malonic acid]: the IC50 is 1250 nM.

`Nc1nc(Cl)nc2c1ncn2[C@@H]1O[C@H](COC(CC(=O)O)(C(=O)O)C(=O)O)[C@@H](O)[C@@H]1F` [compound 19, 1-(((2R,3R,4S,5R)-5-(6-amino-2-chloro-9H-purin-9-yl)-4-fluoro-3-hydroxytetrahydrofuran-2-yl)methoxy)ethane-1,1,2-tricarboxylic acid] showed an IC50 of 5840 nM.

The molecule `N#Cc1ccc(CC(OC[C@H]2O[C@@H](n3cnc4c(N)nc(Cl)nc43)[C@@H](F)[C@@H]2O)(C(=O)O)C(=O)O)cc1F` [compound 75, 2-(((2R,3R,4S,5R)-5-(6-amino-2-chloro-9H-purin-9-yl)-4-fluoro-3-hydroxytetrahydrofuran-2-yl)methoxy)-2-(4-cyano-3-fluorobenzyl)malonic acid] registered an IC50 of 990 nM. Against the preceding molecule, the IC50 is about 5.9-fold lower.

For the molecule `Nc1nc(Cl)nc2c1ncn2[C@@H]1O[C@H](COC(Cc2ccc(OCc3ccccc3)cc2)(C(=O)O)C(=O)O)[C@@H](O)[C@@H]1F` [compound 65, 2-(((2R,3R,4S,5R)-5-(6-amino-2-chloro-9H-purin-9-yl)-4-fluoro-3-hydroxytetrahydrofuran-2-yl)methoxy)-2-(4-(benzyloxy)benzyl)malonic acid], the IC50 came out at 196 nM.

`Nc1nc(Cl)nc2c1ncn2[C@@H]1O[C@H](COC(Cc2ccc(CC(=O)O)cc2)(C(=O)O)C(=O)O)[C@@H](O)[C@@H]1F` [compound 78, 2-(((2R,3R,4S,5R)-5-(6-amino-2-chloro-9H-purin-9-yl)-4-fluoro-3-hydroxytetrahydrofuran-2-yl)methoxy)-2-(4-(carboxymethyl)benzyl)malonic acid] yielded an IC50 of 234 nM. This IC50 and that of the molecule before are within 1.5-fold of each other.

`CN(C)C(=O)c1cccc(CC(OC[C@H]2O[C@@H](n3cnc4c(N)nc(Cl)nc43)[C@@H](F)[C@@H]2O)(C(=O)O)C(=O)O)c1` [compound 22] registered an IC50 of 1140 nM.

Turning to `N#Cc1ccc(CC(OC[C@H]2O[C@@H](n3cnc4c(N)nc(Cl)nc43)[C@@H](F)[C@@H]2O)(C(=O)O)C(=O)O)cc1` [compound 34], the IC50 came to 153 nM.

Take `Nc1nc(Cl)nc2c1ncn2[C@@H]1O[C@H](COC(Cc2ccc3ccccc3c2)(C(=O)O)C(=O)O)[C@@H](O)[C@@H]1F` [compound 17, 2-(((2R,3R,4S,5R)-5-(6-amino-2-chloro-9H-purin-9-yl)-4-fluoro-3-hydroxytetrahydrofuran-2-yl)methoxy)-2-(naphthalen-2-ylmethyl)malonic acid]: inhibition was half-maximal at 1810 nM (IC50).

As for `Nc1nc(Cl)nc2c1ncn2[C@@H]1O[C@H](COC(CCCCO)(C(=O)O)C(=O)O)[C@@H](O)[C@@H]1F` [compound 18, 2-(((2R,3R,4S,5R)-5-(6-amino-2-chloro-9H-purin-9-yl)-4-fluoro-3-hydroxytetrahydrofuran-2-yl)methoxy)-2-(4-hydroxybutyl)malonic acid], the IC50 came to 6320 nM.

As for `CCOC(=O)C(Cc1ccc(OC(F)(F)F)cc1)(OC[C@H]1O[C@@H](n2cnc3c(N)nc(Cl)nc32)[C@@H](F)[C@@H]1O)C(=O)O` (single isomer, unassigned) [compound 37], the midpoint of inhibition, the IC50, lay at 598 nM.

The molecule `Nc1nc(Cl)nc2c1ncn2[C@@H]1O[C@H](COC(Cc2ccc(O)cc2)(C(=O)O)C(=O)O)[C@@H](O)[C@@H]1F` [compound 66, 2-(((2R,3R,4S,5R)-5-(6-amino-2-chloro-9H-purin-9-yl)-4-fluoro-3-hydroxytetrahydrofuran-2-yl)methoxy)-2-(4-hydroxybenzyl)malonic acid] had an IC50 of 426 nM.

As for `Nc1nc(Cl)nc2c1ncn2[C@@H]1O[C@H](COC(Cc2ccc(C(F)(F)F)nc2)(C(=O)O)C(=O)O)[C@@H](O)[C@@H]1F` [compound 32, 2-(((2R,3R,4S,5R)-5-(6-amino-2-chloro-9H-purin-9-yl)-4-fluoro-3-hydroxytetrahydrofuran-2-yl)methoxy)-2-((6-(trifluoromethyl)pyridin-3-yl)methyl)malonic acid], it took 2320 nM to reach half-maximal inhibition (IC50).

Regarding `Nc1nc(Cl)nc2c1ncn2[C@@H]1O[C@H](COC(Cc2ccc(C(=O)O)c(F)c2)(C(=O)O)C(=O)O)[C@@H](O)[C@@H]1F` [compound 58, 2-(((2R,3R,4S,5R)-5-(6-amino-2-chloro-9H-purin-9-yl)-4-fluoro-3-hydroxytetrahydro-furan-2-yl)methoxy)-2-(4-carboxy-3-fluorobenzyl)malonic acid], the IC50 was found to be 853 nM.

As for `Nc1nc(Cl)nc2c1ncn2[C@@H]1O[C@H](COC(Cc2ccc(OCC(=O)O)cc2)(C(=O)O)C(=O)O)[C@@H](O)[C@@H]1F` [compound 92, 2-(((2R,3R,4S,5R)-5-(6-amino-2-chloro-9H-purin-9-yl)-4-fluoro-3-hydroxytetrahydrofuran-2-yl)methoxy)-2-(4-(carboxymethoxy)benzyl)malonic acid], the IC50 was 202 nM. This IC50 is about 4.2-fold lower than that of the molecule before.

`Nc1nc(Cl)nc2c1ncn2[C@@H]1O[C@H](COC(Cc2ccsc2)(C(=O)O)C(=O)O)[C@@H](O)[C@@H]1F` [compound 23]: half-maximal inhibition (IC50) required 480 nM.

`[N-]=[N+]=Nc1nc(N)c2ncn([C@@H]3O[C@H](COC(Cc4cccc(-c5nnn[nH]5)c4)(C(=O)O)C(=O)O)[C@@H](O)[C@@H]3F)c2n1` [compound 43]: the IC50 is 9920 nM.

`Nc1nc(Cl)nc2c1ncn2[C@@H]1O[C@H](COC(Cc2ccc(-c3ccccc3)cc2)(C(=O)O)C(=O)O)[C@@H](O)[C@@H]1F` [compound 79, 2-([1,1′-biphenyl]-4-ylmethyl)-2-(((2R,3R,4S,5R)-5-(6-amino-2-chloro-9H-purin-9-yl)-4-fluoro-3-hydroxytetrahydro-furan-2-yl)methoxy)malonic acid]: the IC50 is 162 nM.

`Nc1nc(Cl)nc2c1ncn2[C@@H]1O[C@H](COC(Cc2ccc(S(N)(=O)=O)cc2)(C(=O)O)C(=O)O)[C@@H](O)[C@@H]1F` [compound 86, 2-(((2R,3R,4S,5R)-5-(6-amino-2-chloro-9H-purin-9-yl)-4-fluoro-3-hydroxytetrahydrofuran-2-yl)methoxy)-2-(4-sulfamoylbenzyl)malonic acid] registered an IC50 of 626 nM.
